Calls of active or inactive are those of the source. The calls are words filed in the database; no cut-off is given here.
What was measured:
5'-nucleotidase [1] = target: T1, 5'-nucleotidase (Homo sapiens, UniProt P21589); experiment: Inhibition of CD73 in human MDA-MB-231 cells assessed as reduction in conversion of AMP to adenosine incubated for 30 mins by malachite green reagent based assay; assay type: cell-based
5'-nucleotidase [2] = target: T1, 5'-nucleotidase; experiment: Inhibition of recombinant CD73 (27 to 549 residues) (unknown origin) expressed in baculovirus infected Sf9 insect cells assessed as reduction in conversion of AMP to adenosine incubated for 1 min followed by AMP addition measured after 3.5 mins by malachite green reagent based assay
5'-nucleotidase [3] = target: T1, 5'-nucleotidase; experiment: Inhibition of CD73 in human NCI-H292 cells assessed as reduction in conversion of AMP to adenosine incubated for 30 mins by malachite green reagent based assay; assay type: cell-based
HL-60 = experiment: Cytotoxicity against human HL60 cells assessed as decrease in cell viability after 72 hrs by MTT assay; assay type: cell-based; details: HL-60, 72 h
RL = experiment: Cytotoxicity against human RL cells assessed as decrease in cell viability after 72 hrs by MTT assay; assay type: cell-based
Granta = experiment: Cytotoxicity against human Granta cells assessed as decrease in cell viability after 72 hrs by MTT assay; assay type: cell-based
CCRF-CEM = experiment: Cytotoxicity against human CCRF-CEM cells assessed as decrease in cell viability after 72 hrs by MTT assay; assay type: cell-based

T1 sequence (P21589 whole entry, the tested form may be a part): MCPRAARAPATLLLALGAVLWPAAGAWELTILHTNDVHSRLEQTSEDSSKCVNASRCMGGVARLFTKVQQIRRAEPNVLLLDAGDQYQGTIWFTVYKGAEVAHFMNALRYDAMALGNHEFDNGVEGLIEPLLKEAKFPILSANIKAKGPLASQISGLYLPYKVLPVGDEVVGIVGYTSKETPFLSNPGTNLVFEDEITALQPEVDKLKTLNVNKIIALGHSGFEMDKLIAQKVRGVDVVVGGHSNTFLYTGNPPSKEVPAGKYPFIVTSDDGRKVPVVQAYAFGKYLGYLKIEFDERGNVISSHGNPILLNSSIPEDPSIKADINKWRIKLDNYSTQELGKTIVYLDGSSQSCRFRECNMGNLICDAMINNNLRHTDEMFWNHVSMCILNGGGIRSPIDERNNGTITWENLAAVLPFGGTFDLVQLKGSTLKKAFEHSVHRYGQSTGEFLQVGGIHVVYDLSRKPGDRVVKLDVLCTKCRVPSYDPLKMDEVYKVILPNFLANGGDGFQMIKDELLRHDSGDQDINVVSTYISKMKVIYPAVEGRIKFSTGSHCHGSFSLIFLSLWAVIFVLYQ

| Compound | IC50 (5'-nucleotidase [1]) [µM] | inhibition (5'-nucleotidase [2]) | IC50 (5'-nucleotidase [3]) [nM] | IC50 (HL-60) [µM] | IC50 (RL) [nM] | IC50 (5'-nucleotidase [2]) [nM] | IC50 (Granta) [µM] | IC50 (CCRF-CEM) [µM] |
| --- | --- | --- | --- | --- | --- | --- | --- | --- |
| Nc1nc(F)nc2c1ncn2[C@@H]1O[C@H](COP(=O)(O)CP(=O)(O)O)[C@@H](O)[C@@H]1O | 112 | Active | 2200 | – | – | – | – | – |
| Nc1ncnc2c1ncn2[C@@H]1O[C@H](COP(=O)(O)CP(=O)(O)O)[C@@H](O)[C@H]1O [PHOSPHOMETHYLPHOSPHONIC ACID ADENOSYL ESTER] | 21.4 | – | 23600 | – | – | 3800 | – | – |
| Nc1nc(Cl)nc2c1ncn2[C@@H]1O[C@H](CO)[C@@H](O)[C@@H]1F [CLOFARABINE] | – | – | – | 0.04 | 380 | – | 0.017 | 0.044 |

Second part, led by results:

| IC50 (5'-nucleotidase [1]) [µM] | inhibition (5'-nucleotidase [2]) | IC50 (5'-nucleotidase [3]) [nM] | Compound | IC50 (HL-60) [µM] | IC50 (RL) [nM] | IC50 (5'-nucleotidase [2]) [nM] | IC50 (Granta) [µM] | IC50 (CCRF-CEM) [µM] |
| --- | --- | --- | --- | --- | --- | --- | --- | --- |
| 3.2 | – | 240 | Nc1nc(Cl)nc2c1ncn2[C@@H]1O[C@H](COP(=O)(O)CP(=O)(O)O)[C@@H](O)[C@@H]1F | 49.4 | > 300000 | 180 | 39.5 | 50.6 |
| 147 | Active | 2000 | Nc1nc(Cl)nc2c1ncn2[C@H]1C[C@H](O)[C@@H](COP(=O)(O)CP(=O)(O)O)O1 | – | – | – | – | – |

From ChEMBL document CHEMBL4270632, “CD73 inhibition by purine cytotoxic nucleoside analogue-based diphosphonates” (Eur J Med Chem, 2018)
